Data set [1] can be described thus: Toxicity on mice (LD50). Conditions: mouse. An excerpt: Toxicity values and activities of the above compounds (1) were investigated by animal tests in accordance with conventional methods as described, for example, in the above mentioned publications, and compared with the corresponding data of clofibrate, the well known cholesterol-lowering agent: […]
The subject of data set [2] is cholesterol content of the blood. Nature of the data set: Cholesterol-lowering (dosis required for a 25% reduction of the cholesterol content of the blood). The format is in vivo. Conditions: dosis for 25% reduction of cholesterol content of the blood; mg/kg body weight; read-out: Cholesterol ED 25. An excerpt:
The ED25 value, that is, the dosis in mg/kg body weight required for a 25% reduction of the cholesterol content of the blood, is 151 for clofibrate but better, i.e. lower, with all compounds (1) tested so far.

Data set [3] has as its system triglyceride content of the blood. Nature of the data set: Triglyceride-lowering (dosis required for a 25% reduction of the triglyceride content of the blood). Conditions: dosis for 25% reduction of triglyceride content of the blood, mg/kg body weight; for ED25: read-out: Triglyceride ED 25. The format is in vivo. An excerpt:
The ED25 value, in this instance the dosis in mg/kg body weight required for a 25% reduction of the triglyceride content of the blood, is better, i.e. lower, with all compounds (1) tested so far than the corresponding activity value of 22 of clofibrate.

Data on 7 compounds can be found in patent US4275068A, “Lipid lowering alkylene glycols and ester derivatives thereof” (Siegfried AG, priority 1977, dated 1981).

Structures are written as SMILES. Structures can show the parent of a compound that is named as a salt. A value given as a limit tells only on which side of the number the result lay.

For `CCOC(=O)C(C)(C)Oc1ccc(Cl)cc1` [Clofibrate, reference compound], the 50% lethal dose (LD50) in data set [1] (in vivo) came to 2180 mg/kg. Further, the ED25 in data set [2] worked out at 151 mg/kg. The figures for the “Triglyceride ED 25” value in data set [3] and in data set [3] (listed as clofibrate) were 222 mg/kg and 22 mg/kg, respectively.
Regarding `CC(=O)Oc1ccccc1C(=O)OCCOc1ccc(Cc2ccc(Cl)cc2)cc1` [Example 6, Acetylsalicylic acid ester of 2-[4-(4'-chlorobenzyl)-phenoxy]-ethanol], the median lethal dose (LD50) in data set [1] is > 3000 mg/kg. The ED25 is 70 mg/kg in data set [2] and > 100 mg/kg in data set [3].
For `CCC(C)(CO)Oc1ccc(Cc2ccc(Cl)cc2)cc1` (stereo not drawn) [Example 2, 2-methyl-2-[4-(4'-chlorobenzyl)-phenoxy]-butanol], in that order: 2960 mg/kg, 80 mg/kg and 14 mg/kg.
As for `O=C(OCCOc1ccc(Cc2ccc(Cl)cc2)cc1)c1cccnc1` [Example 4, Ester of nicotinic acid and 2-[4-(4'-chlorobenzyl)-phenoxy]-ethanol], the LD50 in data set [1] was > 3000 mg/kg. Also, the ED25 in data set [2] was 41 mg/kg; in data set [3] it was 70 mg/kg.
With `OCC(Oc1ccc(Cc2ccc(Cl)cc2)cc1)c1ccccc1` (stereo not drawn) [Example 3, 2-phenyl-2-[4-(4'-chlorobenzyl)-phenoxy]-ethanol], the LD50 in data set [1] is > 3000 mg/kg. Besides, the ED25 in data set [2] was > 100 mg/kg.
In data set [1], `OCCOc1ccc(Cc2ccc(Cl)cc2)cc1` [Example 1, 2-[4-(4'-chlorobenzyl)-phenoxy]-ethanol] came in with an LD50 of 3000 mg/kg. The ED25 in data set [2] is 80 mg/kg; in data set [3], < 50 mg/kg.
Taken in the same sequence, the figures for `CCC(C)(COC(=O)c1cccnc1)Oc1ccc(Cc2ccc(Cl)cc2)cc1` (stereo not drawn) [Example 5, Hydrochloride of nicotinic acid ester of 2-methyl-2-[4-(4'-chlorobenzyl)-phenoxy]-butanol] were > 3000 mg/kg, 30 mg/kg and 40 mg/kg.

Usually LD50 stands for the dose expected to kill half of the subjects tested. A high value points to a less toxic substance.
